Structures can show the parent of a compound that is named as a salt.
Test system: TNF-α production
Test: Effect on TNF-α production in mice (in vivo), LPS-induced
Details: serum TNF-α 90 min after LPS 500 μg/kg i.p.; test compound orally 30 min before LPS; ratio relative to test compound non-administration group
Procedure: (§1) Since the TNF-α concentration in serum reaches a peak at 90 min after LPS administration, the TNF-α concentration in the serum at this point was measured using FACTOR TEST mTNF-α (manufactured by Genzyme) and the IL-10 concentration at the same point of time was also measured using Murine IL-10 ELISA Kit (manufactured by Endogen). […] The effect of the test compound on the TNF-α production and IL-10 production was calculated by the following formula as the ratio relative to the test compound non-administration group.

With `CC(=O)NC(C)c1ccc(CN2CCN(c3ccccc3)CC2)cc1` (stereo not shown) [Example 58, N-(1-(4-((4-Phenylpiperazin-1-yl)methyl)phenyl)ethyl)acetamide Dihydrochloride 1/4 Hydrate] the “TNF-α production (%)” value was 19%.

Test system: IL-10 production
Test: Effect on IL-10 production in mice (in vivo), LPS-induced
Details: serum IL-10 90 min after LPS 500 μg/kg i.p.; test compound orally 30 min before LPS; ratio relative to test compound non-administration group
Procedure: as §1

With `CC(=O)NC(C)c1ccc(CN2CCN(c3ccccc3)CC2)cc1` (stereo not shown) [Example 58, N-(1-(4-((4-Phenylpiperazin-1-yl)methyl)phenyl)ethyl)acetamide Dihydrochloride 1/4 Hydrate] the “IL-10 production (%)” value was 499%.

Test system: not given
Test: not given
Details: not given

Compared with `CC(=O)NCc1ccc(CN2CCN(c3ncccn3)CC2)cc1` (as salt: hydrochloride) (hydrate or solvate) [Example 73, N-(4-((4-(Pyrimidin-2-yl)piperazin-1-yl)methyl)phenylmethyl)acetamide Dihydrochloride Monohydrate], `O=CNCc1ccc(CN2CCN(c3ncccn3)CC2)cc1` [Example 76, N-(4-((4-(Pyrimidin-2-yl)piperazin-1-yl)methyl)phenylmethyl)formamide] is lower in melting point: 194 to 195 °C for the first, 97 to 98 °C for the second.

First: CC(=O)NC1(c2ccc(C(C)N3CCN(c4ccc(F)cc4)CC3)cc2)CC1 (stereo not shown) [Example 67, N-(1-(4-(1-(4-(4-Fluorophenyl)piperazin-1-yl)ethyl)phenyl)cyclopropyl)acetamide]
Second: CC(=O)NCc1ccc(C(C)N2CCN(c3ccc(F)cc3)CC2)cc1 (stereo not shown) [Example 59, N-(4-(1-(4-(4-Fluorophenyl)piperazin-1-yl)ethyl)phenylmethyl)acetamide]
The melting point of the first is higher: 149 to 150 °C for the first, 128 to 130 °C for the second.

First: CC(=O)NC(C)(C)c1ccc(CN2CCN(c3ccccc3)CC2)cc1 [Example 50, N-(1-Methyl-1-(4-((4-phenylpiperazin-1-yl)methyl)phenyl)ethyl)acetamide]
Second: CC(=O)NC(C)(C)c1ccc(CN2CCN(c3ccccn3)CC2)cc1 [Example 105, N-(1-Methyl-1-(4-((4-(pyridin-2-yl)piperazin-1-yl)methyl)phenyl)ethyl)acetamide]
The melting point of the first is lower: 110 to 111 °C for the first, 129 to 130 °C for the second.

First: CC(=O)NCc1ccc(CN2CCN(c3ccc(F)cc3Cl)CC2)cc1 [Example 44, N-(4-((4-(2-Chloro-4-fluorophenyl)piperazin-1-yl)methyl)phenylmethyl)acetamide]
Second: CC(=O)NCc1ccc(CN2CCN(c3ccc(F)cc3[N+](=O)[O-])CC2)cc1 [Example 37, N-(4-((4-(4-Fluoro-2-nitrophenyl)-piperazin-1-yl)methyl)phenylmethyl)acetamide]
The melting point of the first is higher: 255 to 257 °C for the first, 94.5 to 96 °C for the second.

First: CC(=O)NC(C)c1ccc(CN2CCN(c3ccccn3)CC2)cc1 (stereo not shown) [Example 104, N-(1-(4-((4-(Pyridin-2-yl)piperazin-1-yl)methyl)phenyl)ethyl)acetamide]
Second: CC(=O)NC(C)c1ccc(CN2CCN(c3cccc(F)n3)CC2)cc1 (stereo not shown) [Example 102, N-(1-(4-((4-(6-Fluoropyridin-2-yl)piperazin-1-yl)methyl)phenyl)ethyl)acetamide]
The melting point of the first is higher: 120 to 121 °C for the first, 109 to 111 °C for the second.

First: CCC(NC(C)=O)c1ccc(CN2CCN(c3ccccc3)CC2)cc1 (stereo not shown) [Example 53, N-(1-(4-((4-Phenylpiperazin-1-yl)methyl)phenyl)propyl)acetamide]
Second: CC(=O)NC(C)c1ccc(CN2CCN(c3ccccc3)CC2)cc1 (stereo not shown) (as salt: hydrochloride) (hydrate or solvate) [Example 58, N-(1-(4-((4-Phenylpiperazin-1-yl)methyl)phenyl)ethyl)acetamide Dihydrochloride 1/4 Hydrate]
The melting point of the first is lower: 109 to 110.5 °C for the first, 196 to 200 °C for the second.

First: O=CNCc1ccc(CN2CCN(c3ccccc3)CC2)cc1 [Example 3, N-(4-((4-Phenylpiperazin-1-yl)methyl)phenylmethyl)formamide]
Second: CC(=O)NCCc1ccc(CN2CCN(c3ccccc3)CC2)cc1 [Example 14, N-(2-(4-((4-Phenylpiperazin-1-yl)methyl)phenyl)ethyl)acetamide]
The melting point of the first is lower: 108 to 109 °C for the first, 117 to 118 °C for the second.

First: CC(=O)N[C@H](C)c1ccc(CN2CCN(c3ccc(F)cc3)CC2)cc1 [Example 122, (R)-N-(1-(4-((4-(4-fluorophenyl)piperazin-1-yl)methyl)phenyl)ethyl)acetamide]
Second: CCC(NC(C)=O)c1ccc(CN2CCN(c3ccc(F)cc3)CC2)cc1 (stereo not shown) [Example 54, N-(1-(4-((4-(4-Fluorophenyl)piperazin-1-yl)methyl)phenyl)propyl)acetamide]
The melting point of the first is higher: 114 to 115 °C for the first, 113 to 114 °C for the second.

First: CC(=O)NCc1ccc(CN2CCN(c3ccnc(Cl)n3)CC2)cc1 [Example 97, N-(4-((4-(2-Chloropyrimidin-4-yl)piperazin-1-yl)methyl)phenylmethyl)acetamide]
Second: CC(=O)NCc1ccc(CN2CCN(c3ccc(Cl)cn3)CC2)cc1 [Example 86, N-(4-((4-(5-Chloropyridin-2-yl)piperazin-1-yl)methyl)phenylmethyl)acetamide]
The melting point of the first is lower: 132 to 133 °C for the first, 155 to 156 °C for the second.

First: CC(=O)NCc1ccc(CN2CCN(c3ccc(F)cc3)CC2)cc1N [Example 24, N-(2-Amino-4-((4-(4-fluorophenyl)piperazin-1-yl)methyl)phenylmethyl)acetamide]
Second: CC(=O)NCc1ccc(CN2CCN(c3ccc(F)cc3)CC2)cc1 [Example 5, N-(4-((4-(4-fluorophenyl)piperazin-1-yl)methyl)phenylmethyl)acetamide]
The melting point of the first is lower: 163 to 164 °C for the first, 164 to 166 °C for the second.

First: CC(=O)NC(C)(C)c1ccc(CN2CCN(c3ncccn3)CC2)cc1 [Example 95, N-(1-Methyl-1-(4-((4-(pyrimidin-2-yl)piperazin-1-yl)methyl)phenyl)ethyl)acetamide]
Second: CC(=O)NCc1ccc(CN2CCN(c3nccc(N(C)C)n3)CC2)cc1 [Example 99, N-(4-((4-(4-(N,N-Dimethylamino)pyrimidin-2-yl)piperazin-1-yl)methyl)phenylmethyl)acetamide]
The melting point of the first is lower: 137 to 138 °C for the first, 152 to 155 °C for the second.

First: CC(=O)NCc1ccc(CN2CCN(c3ncc(Br)s3)CC2)cc1 [Example 111, N-(4-((4-(5-Bromothiazol-2-yl)piperazin-1-yl)methyl)phenylmethyl)acetamide]
Second: CC(=O)NCc1ccc(CN2CCN(c3ncc([N+](=O)[O-])s3)CC2)cc1 [Example 88, N-(4-((4-(5-Nitrothiazol-2-yl)piperazin-1-yl)methyl)phenylmethyl)acetamide]
The melting point of the first is higher: 160 to 163 °C for the first, 151 to 152 °C for the second.

First: CC(=O)NCc1ccc(CN2CCN(c3nc(C)cc(C)n3)CC2)cc1 [Example 93, N-(4-((4-(4,6-Dimethylpyrimidin-2-yl)piperazin-1-yl)methyl)phenylmethyl)acetamide]
Second: CCOc1cc(F)ccc1N1CCN(Cc2ccc(CNC(C)=O)cc2)CC1 [Example 41, N-(4-((4-(2-Ethoxy-4-fluorophenyl)-piperazin-1-yl)methyl)phenylmethyl)acetamide]
The melting point of the first is higher: 127 to 128 °C for the first, 108 to 109 °C for the second.

`CC(=O)NCc1ccc(CN2CCN(c3ccccc3)CC2)cc1[N+](=O)[O-]` [Example 21, N-(2-Nitro-4-((4-phenylpiperazin-1-yl)methyl)phenylmethyl)acetamide] and `CC(=O)NC1(c2ccc(CN3CCN(c4ccccc4)CC3)cc2)CC1` [Example 57, N-(1-(4-((4-Phenylpiperazin-1-yl)methyl)-phenyl)cyclopropyl)acetamide] cannot be ordered by melting point: 135 to 136 °C for the first, 129 to 139.5 °C for the second.

First: CC(=O)NC(C)c1ccc(CN2CCN(c3ccc(F)cc3F)CC2)cc1 (stereo not shown) [Example 49, N-(1-(4-((4-(2,4-Difluorophenyl)piperazin-1-yl)methyl)phenyl)ethyl)acetamide]
Second: CC(=O)NC(C)c1ccc(CN2CCN(c3nccs3)CC2)cc1 (stereo not shown) [Example 101, N-(1-(4-((4-(Thiazol-2-yl)piperazin-1-yl)methyl)phenyl)ethyl)acetamide]
The melting point of the first is lower: 109 to 111 °C for the first, 136 to 137 °C for the second.

Compared with `CC(=O)NCc1ccc(CN2CCN(c3cnccn3)CC2)cc1` [Example 87, N-(4-((4-(Pyrazin-2-yl)piperazin-1-yl)methyl)phenylmethyl)acetamide], `CC(=O)NCc1ccc(CN2CCN(c3ccc(Cl)cc3)CC2)cc1` [Example 11, N-(4-((4-(4-Chlorophenyl)piperazin-1-yl)methyl)phenylmethyl)acetamide] is higher in melting point: 118 to 119 °C for the first, 180.5 to 182 °C for the second.

First: CC(=O)NCCc1ccc(CN2CCN(c3ccc(F)cc3)CC2)cc1 [Example 27, N-(2-(4-((4-(4-Fluorophenyl)piperazin-1-yl)methyl)phenyl)ethyl)acetamide]
Second: COc1ccc(N2CCN(Cc3ccc(CNC(C)=O)cc3)CC2)cc1 [Example 13, N-(4-((4-(4-Methoxyphenyl)piperazin-1-yl)methyl)phenylmethyl)acetamide]
The melting point of the first is lower: 121 to 123 °C for the first, 137 to 138 °C for the second.

First: COc1ccnc(N2CCN(Cc3ccc(C(C)NC(C)=O)cc3)CC2)n1 (stereo not shown) [Example 107, N-(1-(4-((4-(4-Methoxypyrimidin-2-yl)piperazin-1-yl)methyl)phenyl)ethyl)acetamide]
Second: CC(=O)NCc1ccc(C(C)(C)N2CCN(c3ccc(F)cc3)CC2)cc1 (as salt: hydrochloride) (hydrate or solvate)
The melting point of the first is lower: 113 to 115 °C for the first, 179 to 181 °C for the second.

With `CC(=O)NCc1ccc(CN2CCN(c3ncc(Cl)s3)CC2)cc1` [Example 112, N-(4-((4-(5-Chlorothiazol-2-yl)piperazin-1-yl)methyl)phenylmethyl)acetamide] the melting point was 142 to 145 °C (dec.).
With `CC(=O)NCc1ccc(CN2CCN(c3nc(N(C)C)cc(N(C)C)n3)CC2)cc1` [Example 109, N-(4-((4-(4,6-bis(Dimethylamino)-pyrimidin-2-yl)piperazin-1-yl)methyl)phenylmethyl)acetamide] the melting point was 189 to 190 °C (dec.).

Reference: patent US6455528B1, “Piperazine compounds and medicinal use thereof” (Mitsubishi Pharma Corporation, priority 1997, dated 2002)
